This is an account of results in patent publication US12234258B2, “Timosaponin compounds” (priority 2012, dated 2025).

Read-outs that look alike come from different tables or passages of the source.

In data set [1] the test system is SH-SY5Y neuronal cells transfected with mRFP-LC3. Briefly: Colocalization of exogenous labeled Aβ1-42 with mRFP-LC3 autophagic compartments. The following applies: 5 μM, 16 hours. It is filed as cell-based, Human.
Data set [2] has as its system SW480, human colon adenocarcinoma cells. Briefly: Growth of cancer cell lines: SW480. The class given is cell-based. The following applies: mean ± S.D., n = 3; read-out: IC50 against growth of SW480.
Data set [3] concerns the target T1, BACE activity in cell lysates (Mus musculus, UniProt P56818).
T1 construct: endogenous in cells; host or cells: N2A-APPswe (Neuro-2A cells expressing Swedish mutant APP)
Briefly: BACE (β-secretase) activity in cell lysates. The class given is biochemical. The following applies: cells treated with compound. As for the experimental part:
(§1) β-Secretase assays: Confluent N2A-APPswe cells were harvested and homogenized with 50 mM MES, pH 5.5. Protein extracts (10 μg) were incubated with TAIII for 1 hr at room temperature. The β-secretase activities were assayed by adding 10 μM fluorogenic β-secretase substrate (Millipore) to the reaction mixtures and fluorescence signals (excitation, 380 nm; emission, 460 nm) were measured. β-Secretase assays were also performed using purified BACE1 (Millipore) at 100 ng in a buffer of 50 mM MES, pH 5.5.

The test system of the next data set is Neuro-2A cells. The experiment in a line: Neurite outgrowth of N2A cells. The class given is cell-based.
Data set [4] relates to HepG2, human hepatoma cells. The experiment in a line: Growth of cancer cell lines: HepG2. It is filed as cell-based. The following applies: mean ± S.D., n = 3; read-out: IC50 against growth of HepG2.
In data set [5] the test system is HeLa, human cervical carcinoma cells. Briefly: Growth of cancer cell lines: HeLa. The note with it: mean ± S.D., n = 3; read-out: IC50 against growth of HeLa. It is filed as cell-based.
Data set [6] has as its system Aβ42, Aβ40 and Aβ38 in N2A-APPswe cells. The experiment in a line: Aβ42, Aβ40 and Aβ38 profiles in conditioned medium by ELISA. The class given is cell-based. The note with it: FIG. 18, 18 hr. On the procedure:
Aβ ELISA: Aβ concentrations in conditioned medium were assayed using ELISA kits for human Aβ40, human Aβ42 (ultrasensitive) (Invitrogen) and Aβ38 (MyBioSource).
Cells were treated with various concentrations of (TAIII/TAI/AA/TAV) and DMSO vehicle (C) for 18 hr. In part A of FIG. 18, the expression of full length (FL) and CTF (c99 and c83) in cell lysates and secreted APP (sAPPα and sAPPP) in the conditioned medium were examined by immunoblot using methods specified in Example 6. In part B of FIG. 18, the profiles of Aβ42, Aβ40 and Aβ38 in the conditioned medium were determined by ELISA using methods specified in Example 5.
For orientation: An ELISA detects its analyte on a solid surface through an enzyme-linked reagent.

For another data set, the system named is SweAPP N2A cells. Briefly: Cell viability of SweAPP N2A cells. It is filed as cell-based. The following applies: at concentrations that significantly inhibited Aβ production. As for the experimental part: Cells were treated with timosaponins or other test compounds, and the conditioned medium was collected and subjected to measurement of secreted Aβ and N-terminal secreted APP (sAPPα and sAPPβ) by ELISA using specific antibodies pair targeting to respective fragments. Lysates from cells treated with timosaponins were subjected to immunoblot analysis using antibodies against c-terminal of APP to detect the full length APP, α-CTF and β-CTF. Cell viability and cytotoxicity are examined by MTT and LDH release assays, respectively. Cell culture: Neuro-2A cells expressing Swedish mutants of APP (N2A-APPswe) ENREF 12 was cultured in minimal essential medium with 2 mM glutamine, 2 mM pyruvate and 10% fetal bovine serum. Cells were seeded at 6-well plate at 1×10^6 cells/mL and grown for two days until confluence. The medium was replaced and the test compounds were added at indicated concentrations for 24 hr. Cell viability was measured by standard MTT assays.

The target in another data set is T2, purified BACE1 enzyme (Homo sapiens, UniProt P56817).
T2 construct: purchased Millipore
Briefly: Purified BACE1 enzyme activity. It is filed as biochemical. The following applies: up to 100 μM. As for the experimental part: as §1

Data set [7] concerns NCI-H460, human non-small lung carcinoma cells. The experiment in a line: Growth of cancer cell lines: NCI-H460. The class given is cell-based. The following applies: mean ± S.D., n = 3; read-out: IC50 against growth of NCI-H460.
In data set [8] the test system is APP processing (FL APP, β-CTF, secreted Aβ) in SweAPP N2A cells. The experiment in a line: Immunoblot analysis of APP processing in SweAPP N2A cells. The class given is cell-based. The note with it: treated SweAPP N2A cells. As for the experimental part:
Cells obtained from Example 5 were washed with phosphate buffered saline and lysed with buffer containing Tris-Cl (50 mM, pH 7.4), NaCl ([…]), TRITON™ X-100 (1%) supplemented with protease inhibitors. Equal amount of proteins (30 μg) was resolved by 16.5% Tris-tricine gels and then transferred to nitrocellulose membrane with 0.2 µm pore size. For detection of secreted Aβ, 50 μL of the conditioned medium was mixed with sodium dodecyl sulfate (“SDS”) sample buffer and resolved accordingly. The membrane was blocked with Tris-buffered saline containing TWEEN™20 (0.1%) and bovine serum albumin (“BSA”) (3%) and then incubated with primary antibodies at 4° C. overnight, followed with appropriate secondary antibodies for 2 hours. The primary antibodies used included rabbit APP c-terminal antibody with 1:5000 dilution (obtained from Merck Bioscience) for detection of full length (“FL”) and CTFs, and mouse monoclonal 6E10 (obtained from Covance) for detection of secreted Aβ. The immunoreactivities were detected using enhanced chemiluminescence reagents (manufactured by GE Health care).
Immunoblot analysis: Cells were washed with phosphate buffered saline and lysed with buffer containing 50 mM Tris-Cl, pH 7.4, 150 mM NaCl, 1% Triton X-100 supplemented with protease inhibitors. Equal amount of proteins (30 μg) was resolved by 16.5% Tris-tricine gels and then transferred to nitrocellulose membrane with 0.2 µm pore size. For detection of secreted Aβ, sAPPα and sAPPβ, cells were treated with the timosaponins for 8 hr in complete medium which were then replaced with medium containing 0.1% FBS. After further incubation of 16 hr, 50 μL of the conditioned medium was mixed with SDS sample buffer and resolved accordingly. The membrane was blocked with Tris-buffered saline containing 0.1% TWEEN® 20 and 3% BSA and then incubated with primary antibodies at 4° C. overnight, followed with appropriate secondary antibodies for 2 hr. […] The immunoreactivities were detected using enhanced chemiluminescence reagents (GE Health care). […]
Background: A western blot detects proteins with antibodies after separation by electrophoresis.

Data set [9] concerns Aβ1-42 production in SweAPP N2A cells (N2A-APPswe). The experiment in a line: Aβ1-42 ELISA of conditioned medium of SweAPP N2A cells. It is filed as cell-based.
Procedure: Neuro-2A cells expressing Swedish mutants of (“SweAPP N2A cells”) was cultured in minimal essential medium with glutamine (2 mM), pyruvate (2 mM) and fetal bovine serum (10%). Cells were seeded at 6-well plate at 1×10^6 cells/mL and grown overnight. The medium was replaced.
Conditioned medium was diluted with 2 part volume of ELISA diluents. Aβ1-42 concentrations were determined by using human Aβ1-42 ultrasensitive ELISA kit (manufactured by Invitrogen).

T1 sequence (P56818 46-501): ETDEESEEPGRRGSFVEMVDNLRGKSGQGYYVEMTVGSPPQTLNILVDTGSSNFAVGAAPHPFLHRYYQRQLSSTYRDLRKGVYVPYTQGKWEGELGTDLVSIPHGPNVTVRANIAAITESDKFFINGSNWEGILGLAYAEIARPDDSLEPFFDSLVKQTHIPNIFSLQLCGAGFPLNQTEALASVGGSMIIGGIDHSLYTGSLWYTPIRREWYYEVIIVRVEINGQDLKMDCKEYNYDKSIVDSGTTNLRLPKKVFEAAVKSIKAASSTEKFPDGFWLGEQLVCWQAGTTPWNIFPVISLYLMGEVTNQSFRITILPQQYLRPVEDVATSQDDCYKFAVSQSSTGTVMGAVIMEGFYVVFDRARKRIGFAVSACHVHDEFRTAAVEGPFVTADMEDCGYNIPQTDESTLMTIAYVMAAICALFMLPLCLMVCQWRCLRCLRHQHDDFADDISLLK
T2 sequence (P56817 46-501, species assumed): as the sequence (P56818 46-501) above, with S6P, I162V, I165L, T180S, A182V, V340I, A393L, H443Q counted along it
Procedure for Neuro-2A cells: Immunofluorescence examination of neurite outgrowth: Neuro-2A cells were seeded at 1×10^5 cells per glass bottom dish. After treatment, cells were fixed with 4% paraformaldyde for 10 min, permeabilized with 0.1% Trition X-100, and then blocked with 1% BSA in PBS. The cells were incubated with monoclonal antibody raised against type III β-tubulin (Sigma) for 1 hr followed by Alexa488 conjugated secondary antibody. Neurite morphology was examined under fluorescence microscope.

As to `C[C@H]1CC[C@@]2(OC1)O[C@H]1C[C@H]3[C@@H]4CC[C@@H]5C[C@@H](O[C@@H]6O[C@H](CO)[C@H](O)[C@H](O)[C@H]6O[C@@H]6O[C@H](CO)[C@@H](O)[C@H](O)[C@H]6O)CC[C@]5(C)[C@H]4CC[C@]3(C)[C@H]1[C@@H]2C` [Timosaponin AIII], the “Colocalization of fluorophore labeled Aβ1-42 with mRFP-LC3 associated autophagic compartments” value in data set [1] is listed as “significantly colocalized”. The IC50 in [2] is 12.2 ± 0.28 µM; in data set [4] it was 7.28 ± 0.56 µM; in data set [5], 7.47 ± 2.39 µM; in data set [7], 6.9 ± 0.31 µM; in [9] (Example 5, SweAPP N2A cells, 18 hours, ELISA, read-out: IC50, reduction of Aβ1-42 peptide secretion), 2 µM; in data set [9] (Example 9, SweAPP N2A cells, Aβ1-42 ELISA, read-out: ICS50, inhibitor of Aβ production), 2.5 µM. Further, the IC50 in [9] (Table 4, N2A-APPswe cells, mean ± S.D, n ≥ 3, read-out: IC50 in lowering Aβ42 production) stood at 2.3 ± 0.2 µM. The “BACE activity in cell lysates” value in data set [3] is on record as “no change”. Further, the Neurite outgrowth result was “significant extension and branching neuritis” in the data set on Neuro-2A cells (Example 8, 5 μM, 18 hours, N2A cells); “significant extension and branching of neurites” in the data set with Neuro-2A cells (FIG. 19, TAIII 5 μM, TAI 10 μM, SSG 25 μM, 18 hr, type III β-tubulin staining). Further, the “Aβ profile (Aβ42 vs Aβ40 and Aβ38)” value in data set [6] was “preferentially lower Aβ42 production”. The Cell viability entry with SweAPP N2A cells is recorded as “did not affect the cell viability”. The “Activity of purified BACE1 enzyme” value at purified BACE1 enzyme was “not affected”. For the same molecule, the “Aβ immunoreactivities in the conditioned medium” value in data set [8] is listed as “concomitant decrease”. Also, the “FL APP expression” value in data set [8] was “without significant changes”. Also, in [8], the “Intracellular APP β-CTF expression” value is given as “significantly decreased”.
